Source: the NIST ThermoML archive (doi:10.1016/j.fluid.2010.07.005)
± gives the expanded uncertainty stated by the source.

Experiments:
[1] = excess molar enthalpy (molar enthalpy of mixing); xn = mol fraction of the nth substance listed; conditions: 298.15 K, 101.33 kPa, Liquid, Flow calorimetry
[2] = xn = mol fraction of the nth substance listed; conditions: 101.33 kPa, Liquid; for viscosity: Capillary tube (Ostwald / Ubbelohde) method
[3] = molar heat capacity at constant pressure; xn = mol fraction of the nth substance listed; conditions: 101.33 kPa, Liquid, Vacuum adiabatic calorimetry

COP(=O)([O-])OC.Cn1cc[n+](C)c1 [1,3-dimethylimidazolium dimethylphosphate] + CCO
[1]
Conditions | excess molar enthalpy [kcal/mol]
x1 = 0.177 | -0.329 ± 0.00956
x1 = 0.307 | -0.481 ± 0.00932
x1 = 0.524 | -0.485 ± 0.00932
x1 = 0.665 | -0.377 ± 0.00932
x1 = 0.8 | -0.241 ± 0.00908
x1 = 1 | 0 ± 0.0086

Conditions | molar heat capacity at constant pressure, 298.15 K [J/K/mol] | molar heat capacity at constant pressure, 303.15 K [J/K/mol] | molar heat capacity at constant pressure, 313.15 K [J/K/mol] | molar heat capacity at constant pressure, 323.15 K [J/K/mol] | viscosity, 298.15 K [mPa·s] | viscosity, 303.15 K [mPa·s] | viscosity, 308.15 K [mPa·s] | viscosity, 313.15 K [mPa·s] | viscosity, 318.15 K [mPa·s] | viscosity, 323.15 K [mPa·s]
[2], x1 = 0.202 | – | – | – | – | 6.83 ± 0.76 | 5.98 ± 0.75 | 5.3 ± 0.75 | 4.83 ± 0.75 | 4.32 ± 0.74 | 3.94 ± 0.74
[2], x1 = 0.414 | – | – | – | – | 22.99 ± 0.81 | 19 ± 0.77 | 16.21 ± 0.76 | 14.15 ± 0.75 | 12.35 ± 0.75 | 11.03 ± 0.75
[2], x1 = 0.562 | – | – | – | – | 48.76 ± 1.1 | 38.45 ± 0.91 | 30.8 ± 0.84 | 26.47 ± 0.8 | 22.23 ± 0.78 | 19.27 ± 0.76
[2], x1 = 0.807 | – | – | – | – | 137.88 ± 2.8 | 105.91 ± 1.7 | 80.22 ± 1.2 | 63.76 ± 0.93 | 50.57 ± 0.83 | 42.11 ± 0.8
[2], x1 = 1 | – | – | – | – | 271.86 ± 8 | 188.3 ± 4.5 | 139.49 ± 2.6 | 110.25 ± 1.7 | 84.44 ± 1.1 | 69.99 ± 0.89
[3], x1 = 0.224 | 145.29 ± 5.1 | 153.59 ± 5.1 | 172.15 ± 5.1 | 190.19 ± 5.1 | – | – | – | – | – | –
[3], x1 = 0.408 | 193.74 ± 7.1 | 205.3 ± 7.1 | 227.82 ± 7.1 | 247.28 ± 7.1 | – | – | – | – | – | –
[3], x1 = 0.596 | 235.91 ± 9.1 | 247.99 ± 9.1 | 280.92 ± 9.1 | 299.34 ± 9.1 | – | – | – | – | – | –
[3], x1 = 0.803 | 258.54 ± 11 | 267.73 ± 11 | 289.85 ± 11 | 304.85 ± 11 | – | – | – | – | – | –
[3], x1 = 1 | 282.83 ± 13 | 296.61 ± 13 | 310.83 ± 13 | 321.05 ± 13 | – | – | – | – | – | –

mass density [kg/m3], [2], Specific gravity balance
Conditions | 298.15 K | 303.15 K | 308.15 K | 313.15 K | 318.15 K | 323.15 K
x1 = 0.202 | 1000.6 ± 1.6 | 996.6 ± 1.6 | 992.7 ± 1.6 | 989.7 ± 1.6 | 986.9 ± 1.6 | 983.2 ± 1.6
x1 = 0.414 | 1116.5 ± 1.5 | 1113.4 ± 1.5 | 1109.8 ± 1.5 | 1106.6 ± 1.5 | 1103.5 ± 1.5 | 1098.4 ± 1.6
x1 = 0.562 | 1166.7 ± 1.3 | 1163.4 ± 1.3 | 1159.7 ± 1.3 | 1156.2 ± 1.3 | 1152.4 ± 1.3 | 1148.5 ± 1.3
x1 = 0.807 | 1223.2 ± 1.3 | 1219.5 ± 1.3 | 1216.8 ± 1.3 | 1213.8 ± 1.3 | 1211.4 ± 1.3 | 1207.5 ± 1.3
x1 = 1 | 1258.7 ± 1.2 | 1255.9 ± 1.2 | 1253 ± 1.2 | 1249.1 ± 1.2 | 1245.2 ± 1.2 | 1241.5 ± 1.2

COP(=O)([O-])OC.Cn1cc[n+](C)c1 [1,3-dimethylimidazolium dimethylphosphate] + CO
[1]
Conditions | excess molar enthalpy [kcal/mol]
x1 = 0.165 | -0.539 ± 0.0086
x1 = 0.28 | -0.779 ± 0.00789
x1 = 0.466 | -0.783 ± 0.00789
x1 = 0.593 | -0.687 ± 0.00765
x1 = 0.744 | -0.475 ± 0.00717
x1 = 1 | 0 ± 0.00526

Conditions | molar heat capacity at constant pressure, 298.15 K [J/K/mol] | molar heat capacity at constant pressure, 303.15 K [J/K/mol] | molar heat capacity at constant pressure, 313.15 K [J/K/mol] | molar heat capacity at constant pressure, 323.15 K [J/K/mol] | viscosity, 298.15 K [mPa·s] | viscosity, 303.15 K [mPa·s] | viscosity, 308.15 K [mPa·s] | viscosity, 313.15 K [mPa·s] | viscosity, 318.15 K [mPa·s] | viscosity, 323.15 K [mPa·s]
[2], x1 = 0.203 | – | – | – | – | 3.8 ± 0.3 | 3.32 ± 0.29 | 3.06 ± 0.28 | 2.84 ± 0.27 | 2.6 ± 0.27 | 2.4 ± 0.27
[2], x1 = 0.399 | – | – | – | – | 18.33 ± 0.41 | 16.56 ± 0.33 | 12.43 ± 0.31 | 11.08 ± 0.29 | 9.76 ± 0.29 | 8.79 ± 0.28
[2], x1 = 0.603 | – | – | – | – | 53.9 ± 0.99 | 38.18 ± 0.56 | 31.37 ± 0.45 | 25.8 ± 0.39 | 22.86 ± 0.35 | 18.45 ± 0.32
[2], x1 = 0.805 | – | – | – | – | 145.63 ± 3.1 | 98.68 ± 1.6 | 75.4 ± 0.88 | 61.57 ± 0.62 | 49.9 ± 0.51 | 40.2 ± 0.43
[2], x1 = 1 | – | – | – | – | 271.86 ± 8 | 188.3 ± 4.5 | 139.49 ± 2.6 | 110.25 ± 1.6 | 84.44 ± 0.88 | 69.99 ± 0.56
[3], x1 = 0.202 | 130.82 ± 4.2 | 144.77 ± 4.2 | 169.01 ± 4.2 | 190.07 ± 4.2 | – | – | – | – | – | –
[3], x1 = 0.399 | 177.61 ± 6.5 | 191.43 ± 6.5 | 214.09 ± 6.5 | 233.4 ± 6.5 | – | – | – | – | – | –
[3], x1 = 0.591 | 215.46 ± 8.7 | 225.28 ± 8.7 | 246.8 ± 8.7 | 262.54 ± 8.7 | – | – | – | – | – | –
[3], x1 = 0.81 | 256.75 ± 11 | 261.78 ± 11 | 274.8 ± 11 | 290.24 ± 11 | – | – | – | – | – | –
[3], x1 = 1 | 282.83 ± 13 | 296.61 ± 13 | 310.83 ± 13 | 321.05 ± 13 | – | – | – | – | – | –

mass density [kg/m3], [2], Specific gravity balance
Conditions | 298.15 K | 303.15 K | 308.15 K | 313.15 K | 318.15 K | 323.15 K
x1 = 0.203 | 1040.2 ± 1.5 | 1037.1 ± 1.5 | 1033.2 ± 1.5 | 1030.2 ± 1.5 | 1027.6 ± 1.5 | 1025.1 ± 1.4
x1 = 0.399 | 1158.3 ± 1.2 | 1155.2 ± 1.2 | 1151.2 ± 1.2 | 1148.1 ± 1.2 | 1147 ± 1.2 | 1140.1 ± 1.3
x1 = 0.603 | 1205.5 ± 0.9 | 1201.4 ± 0.9 | 1197.8 ± 0.9 | 1194.1 ± 0.9 | 1190.8 ± 0.9 | 1188 ± 0.9
x1 = 0.805 | 1236.4 ± 0.8 | 1233 ± 0.9 | 1229.7 ± 0.9 | 1226.4 ± 0.9 | 1223.1 ± 0.9 | 1219.8 ± 0.9
x1 = 1 | 1258.7 ± 0.8 | 1255.9 ± 0.8 | 1253 ± 0.8 | 1249.1 ± 0.8 | 1245.2 ± 0.8 | 1241.5 ± 0.8

COP(=O)([O-])OC.Cn1cc[n+](C)c1 [1,3-dimethylimidazolium dimethylphosphate] + O
[1]
Conditions | excess molar enthalpy [kcal/mol]
x1 = 0.104 | -1.12 ± 0.0574
x1 = 0.209 | -1.42 ± 0.055
x1 = 0.369 | -1.54 ± 0.055
x1 = 0.498 | -1.45 ± 0.055
x1 = 0.604 | -1.28 ± 0.055
x1 = 1 | 0 ± 0.055

Conditions | molar heat capacity at constant pressure, 298.15 K [J/K/mol] | molar heat capacity at constant pressure, 303.15 K [J/K/mol] | molar heat capacity at constant pressure, 313.15 K [J/K/mol] | molar heat capacity at constant pressure, 323.15 K [J/K/mol] | viscosity, 298.15 K [mPa·s] | viscosity, 303.15 K [mPa·s] | viscosity, 308.15 K [mPa·s] | viscosity, 313.15 K [mPa·s] | viscosity, 318.15 K [mPa·s] | viscosity, 323.15 K [mPa·s]
[2], x1 = 0.252 | – | – | – | – | 40.02 ± 0.55 | 32.61 ± 0.46 | 24.46 ± 0.41 | 20.28 ± 0.38 | 16.97 ± 0.35 | 14.5 ± 0.35
[2], x1 = 0.428 | – | – | – | – | 74.43 ± 1 | 55.22 ± 0.63 | 43.51 ± 0.52 | 35.23 ± 0.46 | 27.92 ± 0.41 | 23.63 ± 0.37
[2], x1 = 0.617 | – | – | – | – | 145.21 ± 2.8 | 110.23 ± 1.7 | 82.04 ± 0.91 | 66.13 ± 0.59 | 51.66 ± 0.45 | 41.92 ± 0.47
[2], x1 = 0.795 | – | – | – | – | 197.92 ± 4.9 | 138.81 ± 2.6 | 104.59 ± 1.5 | 80.27 ± 0.84 | 63.01 ± 0.54 | 50.35 ± 0.41
[2], x1 = 1 | – | – | – | – | 271.86 ± 8 | 188.3 ± 4.5 | 139.49 ± 2.6 | 110.25 ± 1.6 | 84.44 ± 0.88 | 69.99 ± 0.59
[3], x1 = 0.21 | 116.48 ± 3.7 | 124.21 ± 3.7 | 147.96 ± 3.7 | 171.34 ± 3.7 | – | – | – | – | – | –
[3], x1 = 0.375 | 143.19 ± 5.7 | 151.23 ± 5.7 | 167.21 ± 5.7 | 182.63 ± 5.8 | – | – | – | – | – | –
[3], x1 = 0.57 | 197.42 ± 8.1 | 205.75 ± 8.1 | 220.8 ± 8.1 | 232.9 ± 8.1 | – | – | – | – | – | –
[3], x1 = 0.821 | 255.8 ± 11 | 267.68 ± 11 | 284.76 ± 11 | 298.31 ± 11 | – | – | – | – | – | –
[3], x1 = 1 | 282.83 ± 13 | 296.61 ± 13 | 310.83 ± 13 | 321.05 ± 13 | – | – | – | – | – | –

mass density [kg/m3], [2], Speicific gravity balance
Conditions | 298.15 K | 303.15 K | 308.15 K | 313.15 K | 318.15 K | 323.15 K
x1 = 0.252 | 1233.4 ± 1.2 | 1231 ± 1.2 | 1227.9 ± 1.2 | 1224 ± 1.2 | 1220.8 ± 1.2 | 1216.8 ± 1.2
x1 = 0.428 | 1241.5 ± 1.2 | 1239.4 ± 1.2 | 1236.2 ± 1.2 | 1233.6 ± 1.2 | 1230.5 ± 1.2 | 1226.2 ± 1.2
x1 = 0.617 | 1248.5 ± 1.2 | 1245.8 ± 1.2 | 1241.8 ± 1.2 | 1239.3 ± 1.2 | 1236.1 ± 1.2 | 1232.9 ± 1.2
x1 = 0.795 | 1253.6 ± 1.2 | 1250.5 ± 1.2 | 1247.2 ± 1.2 | 1243.9 ± 1.2 | 1241.1 ± 1.2 | 1236.8 ± 1.2
x1 = 1 | 1258.7 ± 1.2 | 1255.9 ± 1.2 | 1253 ± 1.2 | 1249.1 ± 1.2 | 1245.2 ± 1.2 | 1241.5 ± 1.2
